ChEMBL document CHEMBL1158662, “Cochinolide, a new gamma-alkylidene bicyclic butenolide with antiviral activity, and its beta-glucopyranoside from Homalium cochinchinensis” (J Nat Prod, 1998)
In brackets after ≈: the same amount, converted by molar mass. Activity calls are given as the source filed them. The calls are words filed in the database; no cut-off is given here.

Assays:
Human alphaherpesvirus 1 = assay: Antiviral activity against HSV1; format: functional, organism-based
Human alphaherpesvirus 2 = assay: Antiviral activity against HSV2; format: functional, organism-based

Row | SMILES | Activity (Human alphaherpesvirus 1) | Activity (Human alphaherpesvirus 2) | EC50 (Human alphaherpesvirus 1) | EC50 (Human alphaherpesvirus 2)
1 | O=C1OC2=C[C@@H](O[C@@H]3O[C@H](CO)[C@@H](O)[C@H](O)[C@H]3O)CCC2=C1C(O)c1ccccc1 (some centres undefined) | inactive | inactive | – | –
2 | Nc1nc2c(ncn2COCCO)c(=O)[nH]1 [ACYCLOVIR] | – | – | 0.24 µg/mL (≈ 1.07 µM) | 0.22 µg/mL (≈ 0.977 µM)
